Each structure is given as a SMILES string. Where two headings read alike, the source gives them in different places.

For data set [1] the following is noted: mouse, in vivo, po, 30 mg/kg; cited from earlier work.
The test system of another data set is J774 cells. The data set can be described thus: High content analysis of drug-induced phospholipidosis (DIPL) and cytotoxicity in macrophage-like cells. In kind it is cell-based. The conditions noted are these: mouse, 48 h. From the text:
FIG. 1: A macrophage-like cell line (J774 cells) were used to screen whether three different nanocarrier formulations differing in their lipid compositions (1: DOPC/Chol, 2: DMPC/DMPG or 3: pegylated DOPC/Chol) i) are cytotoxic to this cell type and protect the cells from BDQ-induced DIPL. A heat map was used to depict the number of cells with DIPL-induced abnormalities (first two left-hand columns) and cytotoxicity markers (columns on the right). Black fields indicate that <10% of the cells in the treatment groups were abnormal, whereas grey-to-white colored fields denote an increasing proportion of cells with abnormalities. The heatmap at the top depicts the positive control group for DIPL, which consisted of four known CADs (amiodarone, amytryptiline, azithromycin, and BDQ) administered to the cells in solution (no formulation). […] The numbers on the left-hand side of each heatmap denote the CAD dose (μM) and the total lipid concentration (μg/mL) added to each well. The values depicted the mean % abnormal cells from six replicate formulations tested in four different cell passage numbers.
High content analysis was initially used as a rapid screening tool to evaluate interactions between lipid-based nanocarrier (TargoSphere©) formulations applied as liquid dispersions and macrophage cells. […] Two of the formulations (DOPC/Chol and DMPG/DMPC) contained Fuc-C4-Chol as a C-type lectin receptor targeting ligand (+CLR). Four concentrations ranging from 15-700 μg/mL (total solid content) were tested. After an incubation time of 48 h three assays with different fluorescence markers were performed. […]
For high content analysis, images were documented using the Cytation™ 5 Cell Imaging Multi-Mode Reader (BioTek, Bad Friedrichshall, Germany) with a 40× objective in standard 2D imaging mode. For each well 6 pictures were analysed using the Gen5 software (BioTek, Bad Friedrichshall, Germany). […] For both dyes the fluorescence intensity values were measured. […] Area and size of the vacuoles were identified and measured based on negative staining. […]

The conditions of data set [2]: p.o. 25 mg/kg, HP-β-CD solution, Irwin, 2016, male Balb/c mice, cited from earlier work.
A short description of data set [3]: In vivo pharmacokinetics, current example (i.v., i.n., p.o.), healthy Balb-c mice. The method, then:
Values represent the mean of n=6 animals per time point.
After 0.5, 3, 24, 48, 72 and 96 hours, the animals were sacrificed and samples were taken from the blood plasma, lung tissues, lung epithelial fluid and cellular fraction of the lung epithelial fluid. […]

Data set [4] has as its system Mycobacterium tuberculosis strains. The conditions noted are these: cited from earlier work.
Setting [5] is: Balb-c, mouse, in vivo, po, 25 mg/kg.

In the case of `COc1nc2ccc(Br)cc2cc1[C@@H](c1ccccc1)[C@@](O)(CCN(C)C)c1cccc2ccccc12` [BDQ, bedaquiline], the tmax is 24 h in data set [1]; 8 h in data set [2] (BDQ in lung tissue); 0.5 h in data set [2] (BDQ in plasma); 0.5 h in data set [3] (BDQ in plasma, p.o. 25 mg/kg, drug suspension, current example); 24 h in data set [3] (setting [5]). Besides, the “cells exhibiting abnormal phospholipid accumulation” value with J774 cells is around 100%. The Cmax in data set [2] (BDQ in plasma) is 2.9 µg/mL. Also, the Kp in data set [3] (Balb-c, mouse, in vivo) stood at 62; in data set [3] (Balb-c, mouse, in vivo, iv), 15; in data set [3] (Balb-c, mouse, in vivo, po), 11. Also, the “increase in lung exposure after intrapulmonary administration” value in data set [3] (Balb-c, mouse, in vivo) was determined as 3 fold. Also, in data set [3] (setting [5]), the Tmax came to 3 h.

Regarding `CNCCC(O)(c1cccc2ccccc12)C(c1ccccc1)c1cc2cc(Br)ccc2nc1OC` (stereo not drawn) [M2, N-desmethyl-BDQ], the “attenuated activity against Mycobacterium tuberculosis strains compared to BDQ” value in data set [4] is on record as 3- to 5 fold.

In the case of `CCCCc1oc2ccccc2c1C(=O)c1cc(I)c(OCCN(CC)CC)c(I)c1` [amiodarone], the “cells exhibiting abnormal phospholipid accumulation” value in the data set with J774 cells is around 100%.

As to `CC[C@H]1OC(=O)[C@H](C)[C@@H](O[C@H]2C[C@@](C)(OC)[C@@H](O)[C@H](C)O2)[C@H](C)[C@@H](O[C@@H]2O[C@H](C)C[C@H](N(C)C)[C@H]2O)[C@](C)(O)C[C@@H](C)CN(C)[C@H](C)[C@@H](O)[C@]1(C)O` [azithromycin], in the data set on J774 cells, the “cells exhibiting abnormal phospholipid accumulation” value is around 100%.

Values taken from patent publication US20250144088A1, “INHALABLE FORMULATION FOR USE IN THE TREATMENT OF BACTERIAL LUNG INFECTIONS” (priority 2022, published 2025).
